The source made the active and inactive calls. The calls are words filed in the database; no cut-off is given here.
What was measured:
HeLa [1] = test: Antiproliferative activity against human HeLa cells after 48 hrs by MTT assay; type: functional, cell-based
HeLa [2] = test: Induction of autophagosome accumulation in human HeLa cells harboring RFP-GFP-LC3 assessed as GFP-LC3 puncta formation at 30 uM after 24 hrs by DAPI staining based fluorescence microscopic method; type: functional, cell-based
MDA-MB-231 = test: Antiproliferative activity against human MDA-MB-231 cells after 48 hrs by MTT assay; type: functional, cell-based; details: MDA-MB-231, 48 h
U2OS = test: Antiproliferative activity against human U2OS cells after 48 hrs by MTT assay; type: functional, cell-based
HeLa [3] = test: Induction of autophagosome accumulation in human HeLa cells harboring RFP-GFP-LC3 assessed as increase in p62 level after 24 hrs by immunoblot method; type: functional, cell-based
HL-60 = test: Antiproliferative activity against human HL60 cells after 48 hrs by EZ-Cytox cell viability assay; type: functional, cell-based; details: HL-60, 48 h
[4] = target: T1, Indoleamine 2,3-dioxygenase 1 (Homo sapiens, UniProt P14902); test: Inhibition of ascorbic acid/methylene blue activated recombinant human IDO expressed in Escherichia coli up to 10 uM using L-Tryptophan as substrate after 60 mins by spectrophotometric method relative to control
Target sequence in this assay (P14902 whole entry, looked up): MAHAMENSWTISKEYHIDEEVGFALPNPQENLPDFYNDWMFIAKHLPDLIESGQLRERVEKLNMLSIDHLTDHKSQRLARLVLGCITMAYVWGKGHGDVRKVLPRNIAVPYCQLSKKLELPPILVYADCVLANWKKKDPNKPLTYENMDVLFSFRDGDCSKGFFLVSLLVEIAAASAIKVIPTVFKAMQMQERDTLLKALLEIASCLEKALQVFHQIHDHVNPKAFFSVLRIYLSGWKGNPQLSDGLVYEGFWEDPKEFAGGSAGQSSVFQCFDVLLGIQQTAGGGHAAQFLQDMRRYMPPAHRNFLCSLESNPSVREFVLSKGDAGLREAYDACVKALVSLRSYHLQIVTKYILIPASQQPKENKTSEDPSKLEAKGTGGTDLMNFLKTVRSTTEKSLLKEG

SW480 = test: Antiproliferative activity against human SW480 cells after 48 hrs by MTT assay; type: functional, cell-based; details: SW480, 48 h
HeLa [5] = test: Induction of autophagosome accumulation in human HeLa cells harboring RFP-GFP-LC3 assessed as increase in LC3-2 level after 24 hrs by immunoblot method; type: functional, cell-based
[6] = target: T1, Indoleamine 2,3-dioxygenase 1; test: Inhibition of ascorbic acid/methylene blue activated recombinant human IDO expressed in Escherichia coli using L-Tryptophan as substrate after 60 mins by spectrophotometric method
Target sequence in this assay (P14902 whole entry): as the sequence (P14902 whole entry, looked up) above

## C/C=C(\C)[C@H](O)[C@H](C)/C=C(C)/C=C/C/C(C)=C/Cc1nc(OC)c(OC)c(O)c1C [PIERICIDIN A]
HeLa [1]
  IC50: 84.9 µM
HeLa [2]
  Activity: Active
MDA-MB-231
  IC50: > 100 µM
U2OS
  IC50: 91.5 µM
HeLa [3]
  Activity: Dose-dependent effect
HL-60
  IC50: 82.1 µM
[4]
  inhibition: < 50%
SW480
  IC50: 82.1 µM
HeLa [5]
  Activity: Dose-dependent effect

## CC(=O)NC1=CC(=O)c2cc(O[C@@H]3O[C@@H](C)[C@@H](O)[C@@H](O)[C@H]3O)c(C)cc2C1=O
HeLa [1]
  IC50: 35 µM
MDA-MB-231
  IC50: 72.1 µM
U2OS
  IC50: 33.6 µM
HL-60
  IC50: 7.1 µM
[6]
  IC50: 0.56 µM
SW480
  IC50: 9.3 µM

## COc1cccc2c1C(=O)c1c(O)c3c(c(O)c1C2=O)C[C@@](O)(C(=O)CO)C[C@@H]3O[C@H]1C[C@H](N)[C@H](O)[C@H](C)O1 [DOXORUBICIN]
HeLa [1]
  IC50: 0.606 µM
MDA-MB-231
  IC50: 0.369 µM
U2OS
  IC50: 0.563 µM
HL-60
  IC50: 0.532 µM
SW480
  IC50: 0.406 µM

## C/C=C(\C)[C@H](O)[C@H](C)/C=C(C)/C=C/C/C(C)=C/Cc1nc(OC)c(OC)c(O[C@@H]2O[C@@H](C)[C@@H](O)[C@@H](O)[C@H]2O)c1C
HeLa [1]
  IC50: 27.3 µM
HeLa [2]
  Activity: Active
MDA-MB-231
  IC50: 35.1 µM
U2OS
  IC50: 29.6 µM
HeLa [3]
  Activity: Dose-dependent effect
HL-60
  IC50: 24.8 µM
[4]
  inhibition: < 50%
SW480
  IC50: 23 µM
HeLa [5]
  Activity: Dose-dependent effect

## C/C1=C/C=C\C=C\[C@H](C)[C@@H](O)CC(=O)/C(C)=C/C[C@H](O)/C=C/[C@H](C)[C@H](O)[C@@H](C)/C=C(\C)C(=O)c2c(O)c(C)cc3c2C(=O)C(Cl)=C(NC1=O)C3=O [NAPHTHOMYCIN A]
HeLa [1]
  IC50: 30.2 µM
MDA-MB-231
  IC50: 34.6 µM
U2OS
  IC50: 20.5 µM
HL-60
  IC50: 2.1 µM
[6]
  IC50: 0.44 µM
SW480
  IC50: 7.6 µM

## C/C(=C\[C@H](C)[C@@H](O)[C@@H](C)/C=C/[C@@H](O)C/C=C(\C)C(=O)C[C@H](O)[C@@H](C)/C=C/C=C\C=C/C(=O)NC1=C(Cl)C(=O)c2cc(O)c(C)cc2C1=O)C(=O)O
HeLa [1]
  IC50: 71.4 µM
MDA-MB-231
  IC50: > 100 µM
U2OS
  IC50: > 100 µM
HL-60
  IC50: 42.2 µM
SW480
  IC50: 78.1 µM

## CC1=CC(=O)c2ccccc2C1=O [MENADIONE]
[6]
  IC50: 0.37 µM

## C/C(=C\[C@H](C)[C@@H](O)[C@@H](C)/C=C/[C@@H](O)C/C=C(\C)C(=O)C[C@H](O)[C@@H](C)/C=C/C=C\C=C/C(=O)Nc1c(Cl)c(O[C@@H]2O[C@@H](C)[C@@H](O)[C@@H](O)[C@H]2O)c2cc(O)c(C)cc2c1O)C(=O)O
HeLa [1]
  IC50: > 100 µM
MDA-MB-231
  IC50: > 100 µM
U2OS
  IC50: > 100 µM
HL-60
  IC50: 91.4 µM
[4]
  inhibition: < 50%
SW480
  IC50: 94.3 µM

## CNc1ccccc1C(=O)O[C@@H]1O[C@@H](C)[C@@H](O)[C@@H](O)[C@H]1O
HeLa [1]
  IC50: > 100 µM
MDA-MB-231
  IC50: > 100 µM
U2OS
  IC50: > 100 µM
HL-60
  IC50: > 100 µM
[4]
  inhibition: < 50%
SW480
  IC50: > 100 µM
